From ChEMBL document CHEMBL1201862, “PubChem BioAssay data set” (2004)
“And” between values parts separate entries of the source, which are not always exact repeats. Identical values can stand only once. The source made the active and inactive calls.

Key:
[1] = molecular target: T1, Low molecular weight phosphotyrosine protein phosphatase (Homo sapiens, UniProt P24666); test: inhibition of human LMPTP enzyme activity – biochemical, absorbance, pNPP substrate, LMPTP-A isoform, set 2, orthogonal assay, dose response (AID 743308); format: functional
T1 sequence (P24666 whole entry): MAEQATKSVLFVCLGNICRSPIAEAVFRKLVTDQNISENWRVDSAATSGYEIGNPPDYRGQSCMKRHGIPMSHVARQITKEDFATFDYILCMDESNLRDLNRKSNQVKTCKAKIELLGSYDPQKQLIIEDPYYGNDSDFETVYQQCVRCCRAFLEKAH

[2] = molecular target: T1, Low molecular weight phosphotyrosine protein phosphatase; test: inhibition of LMPTP-A enzymatic activity – biochemical, OMFP substrate, fluorescence intensity, set 2, dose response (AID 743307); format: functional
[3] = molecular target: Sphingosine 1-phosphate receptor 2 (Homo sapiens, UniProt O95136); test: Dose Response Cell Based Assay for Antagonists of the S1P2 Receptor. [Related pubchem assays: 856, 736 ]; format: functional
Sequence of Sphingosine 1-phosphate receptor 2 (O95136 whole entry, the tested form may be a part): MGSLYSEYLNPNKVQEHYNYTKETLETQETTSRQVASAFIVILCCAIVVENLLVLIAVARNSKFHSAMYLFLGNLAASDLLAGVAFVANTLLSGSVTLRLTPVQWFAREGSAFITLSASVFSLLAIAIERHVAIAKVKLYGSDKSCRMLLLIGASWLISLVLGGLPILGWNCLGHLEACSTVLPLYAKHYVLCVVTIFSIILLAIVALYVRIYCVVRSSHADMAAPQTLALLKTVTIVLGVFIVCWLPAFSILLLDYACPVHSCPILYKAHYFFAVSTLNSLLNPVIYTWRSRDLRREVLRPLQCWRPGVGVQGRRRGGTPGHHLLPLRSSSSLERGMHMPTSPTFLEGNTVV

[4] = molecular target: T2, Carboxy-terminal domain RNA polymerase II polypeptide A small phosphatase 1 (Homo sapiens, UniProt Q9GZU7); test: CTDSP1 inhibitors, concentration-response, biochemical, absorbance readout, ultra-high-throughput screen actives (AID 540297); format: functional
T2 sequence (Q9GZU7 whole entry): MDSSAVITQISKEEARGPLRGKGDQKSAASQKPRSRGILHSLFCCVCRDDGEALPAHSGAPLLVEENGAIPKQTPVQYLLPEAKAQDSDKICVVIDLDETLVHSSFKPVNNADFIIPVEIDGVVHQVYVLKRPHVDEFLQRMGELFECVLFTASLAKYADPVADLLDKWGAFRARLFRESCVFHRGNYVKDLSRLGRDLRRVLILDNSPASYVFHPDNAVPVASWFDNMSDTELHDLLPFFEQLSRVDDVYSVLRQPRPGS

[5] = viability loss in THP-1 monocytes – THP-1 cells, cytotoxicity control for Vif-APOBEC3G degradation inhibitor project, dose response (AID 1117359); format: functional; conditions: THP-1
Protein Tat = Protein Tat (Human immunodeficiency virus type 1 group M subtype B (isolate HXB2)(HIV-1), UniProt P04608); format: functional;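 also: tat binding to TAR RNA read out by fluorescence polarization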
Sequence of Protein Tat (P04608 whole entry): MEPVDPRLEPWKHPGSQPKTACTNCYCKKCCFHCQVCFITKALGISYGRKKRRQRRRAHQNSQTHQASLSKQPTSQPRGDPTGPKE

[6] = molecular target: T3, Replicative DNA helicase DnaB (Mycobacterium tuberculosis, UniProt P9WMR3); test: DnaB intein splicing inhibitors, dose response, biochemical, cell-free fluorescence (AID 449749); format: functional
T3 sequence (P9WMR3 whole entry): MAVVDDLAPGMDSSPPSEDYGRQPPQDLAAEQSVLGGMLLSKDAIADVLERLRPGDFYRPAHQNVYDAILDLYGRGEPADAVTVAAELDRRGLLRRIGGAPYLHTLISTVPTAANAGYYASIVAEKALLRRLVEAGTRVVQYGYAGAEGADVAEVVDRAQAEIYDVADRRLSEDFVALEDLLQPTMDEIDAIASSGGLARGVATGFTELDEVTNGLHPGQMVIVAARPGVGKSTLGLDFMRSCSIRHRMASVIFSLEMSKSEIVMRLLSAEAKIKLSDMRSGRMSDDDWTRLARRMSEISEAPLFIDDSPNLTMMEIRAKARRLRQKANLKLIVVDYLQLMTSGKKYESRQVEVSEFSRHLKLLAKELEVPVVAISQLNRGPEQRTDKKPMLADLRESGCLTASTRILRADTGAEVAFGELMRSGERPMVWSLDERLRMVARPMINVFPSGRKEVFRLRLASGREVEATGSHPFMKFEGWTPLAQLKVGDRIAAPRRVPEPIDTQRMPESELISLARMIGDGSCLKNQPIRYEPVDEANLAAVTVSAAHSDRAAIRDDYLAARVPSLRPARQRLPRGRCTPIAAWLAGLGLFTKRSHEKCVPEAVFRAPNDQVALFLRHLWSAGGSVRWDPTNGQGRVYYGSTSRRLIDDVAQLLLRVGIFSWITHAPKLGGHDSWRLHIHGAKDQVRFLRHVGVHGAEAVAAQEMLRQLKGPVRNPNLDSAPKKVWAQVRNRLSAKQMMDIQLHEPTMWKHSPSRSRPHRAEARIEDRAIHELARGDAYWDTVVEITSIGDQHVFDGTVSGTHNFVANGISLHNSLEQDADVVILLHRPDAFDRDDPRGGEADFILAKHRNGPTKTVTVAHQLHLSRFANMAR

Bcl-2-related protein A1 [7] = molecular target: T4, Bcl-2-related protein A1 (Mus musculus, UniProt Q07440); test: small-molecule antagonists of Bfl-1/BH3 interaction – biochemical, TR-FRET, mouse Bfl-1, confirmation (AID 621);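 also: TR-FRET binding of GST-Bfl-1 to FITC-labelled Bid peptide via terbium antibody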
T4 sequence (Q07440 whole entry): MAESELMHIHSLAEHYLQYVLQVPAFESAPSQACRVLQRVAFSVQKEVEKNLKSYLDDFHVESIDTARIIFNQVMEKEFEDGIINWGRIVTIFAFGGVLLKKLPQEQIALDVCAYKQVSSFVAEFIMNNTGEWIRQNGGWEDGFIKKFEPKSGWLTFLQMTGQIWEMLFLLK

Protein RecA = molecular target: T5, Protein RecA (Mycobacterium tuberculosis, UniProt P9WHJ3); test: Fluorescence Cell-Free Homogeneous Dose Retest to Identify Inhibitors of RecA-Intein Splicing Activity. [Related pubchem assays (depositor defined):AID2097, AID2223, AID489010, AID492950]; format: functional
T5 sequence (P9WHJ3 whole entry): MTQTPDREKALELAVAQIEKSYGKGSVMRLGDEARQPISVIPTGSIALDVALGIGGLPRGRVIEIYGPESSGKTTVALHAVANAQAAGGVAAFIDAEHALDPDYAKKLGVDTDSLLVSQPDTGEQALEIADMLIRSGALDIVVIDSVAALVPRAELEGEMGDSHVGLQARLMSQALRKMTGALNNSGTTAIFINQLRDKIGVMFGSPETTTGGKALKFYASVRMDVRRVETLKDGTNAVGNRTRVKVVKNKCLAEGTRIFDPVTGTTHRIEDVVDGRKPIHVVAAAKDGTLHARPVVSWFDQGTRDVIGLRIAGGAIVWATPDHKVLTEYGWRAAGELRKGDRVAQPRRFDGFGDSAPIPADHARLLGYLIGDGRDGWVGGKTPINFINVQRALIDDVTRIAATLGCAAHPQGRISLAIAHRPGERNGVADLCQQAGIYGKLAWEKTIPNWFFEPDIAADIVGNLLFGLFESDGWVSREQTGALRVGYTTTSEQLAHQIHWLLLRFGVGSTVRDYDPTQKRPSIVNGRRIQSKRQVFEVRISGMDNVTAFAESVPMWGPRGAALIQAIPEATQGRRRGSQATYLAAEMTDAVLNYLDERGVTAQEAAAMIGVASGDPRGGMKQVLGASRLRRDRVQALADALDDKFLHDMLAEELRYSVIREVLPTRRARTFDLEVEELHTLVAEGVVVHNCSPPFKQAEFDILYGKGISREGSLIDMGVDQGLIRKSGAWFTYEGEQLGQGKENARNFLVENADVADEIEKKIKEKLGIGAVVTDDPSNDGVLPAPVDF

Genome polyprotein = Genome polyprotein (dengue virus type 2, UniProt P29990); test: flavivirus cap methylation enzyme inhibition – biochemical, confirmation dose response, primary screen (AID 588689); format: functional
Sequence of Genome polyprotein (P29990 2492-3391 limits assumed): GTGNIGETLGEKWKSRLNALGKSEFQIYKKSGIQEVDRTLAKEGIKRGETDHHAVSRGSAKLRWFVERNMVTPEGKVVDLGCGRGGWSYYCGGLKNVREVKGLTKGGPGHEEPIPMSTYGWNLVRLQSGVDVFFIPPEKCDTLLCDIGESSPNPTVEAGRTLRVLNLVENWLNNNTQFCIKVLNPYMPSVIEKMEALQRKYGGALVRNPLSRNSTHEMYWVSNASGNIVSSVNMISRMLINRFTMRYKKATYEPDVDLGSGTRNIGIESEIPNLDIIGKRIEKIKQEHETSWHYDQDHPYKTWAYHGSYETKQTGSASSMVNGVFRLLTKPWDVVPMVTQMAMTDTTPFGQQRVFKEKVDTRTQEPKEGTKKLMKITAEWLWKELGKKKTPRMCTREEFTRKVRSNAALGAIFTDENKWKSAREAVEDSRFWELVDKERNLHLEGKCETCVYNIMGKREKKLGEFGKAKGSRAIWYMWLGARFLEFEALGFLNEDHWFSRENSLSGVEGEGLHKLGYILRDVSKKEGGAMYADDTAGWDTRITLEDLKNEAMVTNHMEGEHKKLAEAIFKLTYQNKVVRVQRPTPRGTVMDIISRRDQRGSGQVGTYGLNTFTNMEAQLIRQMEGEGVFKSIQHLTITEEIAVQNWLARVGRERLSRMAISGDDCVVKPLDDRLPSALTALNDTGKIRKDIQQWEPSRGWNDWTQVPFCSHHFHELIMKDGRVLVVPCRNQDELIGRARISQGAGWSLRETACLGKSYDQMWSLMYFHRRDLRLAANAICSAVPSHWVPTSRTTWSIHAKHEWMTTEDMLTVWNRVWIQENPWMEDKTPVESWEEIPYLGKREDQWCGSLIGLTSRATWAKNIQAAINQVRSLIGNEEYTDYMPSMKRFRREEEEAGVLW

Bcl-2-related protein A1 [8] = molecular target: T4, Bcl-2-related protein A1; test: Bfl-1 binding inhibitors, SAR follow-up, biochemical, fluorescence polarization (AID 1070)
[9] = molecular target: Glyceraldehyde-3-phosphate dehydrogenase (Homo sapiens, UniProt P04406)
Sequence of Glyceraldehyde-3-phosphate dehydrogenase (P04406 whole entry): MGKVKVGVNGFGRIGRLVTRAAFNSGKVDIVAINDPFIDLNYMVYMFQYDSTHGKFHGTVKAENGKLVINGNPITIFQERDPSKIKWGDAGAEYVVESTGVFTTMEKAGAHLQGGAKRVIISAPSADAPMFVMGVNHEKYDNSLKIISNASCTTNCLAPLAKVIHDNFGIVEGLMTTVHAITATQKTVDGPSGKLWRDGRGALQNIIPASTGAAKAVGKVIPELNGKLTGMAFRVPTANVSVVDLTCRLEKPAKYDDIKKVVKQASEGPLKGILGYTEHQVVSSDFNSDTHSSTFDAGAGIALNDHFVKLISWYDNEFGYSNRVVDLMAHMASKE

Bcl-2-related protein A1 [10] = molecular target: T4, Bcl-2-related protein A1; test: displacement of Bid BH3 peptide from Bfl-1 – biochemical, fluorescence polarization, FITC-Bid, mouse, primary screen (AID 432)

For `CN1CCN(c2nc(-c3ccccc3)nc3ccccc23)CC1`, the IC50 [1] was > 80 µM (inactive) and the IC50 [2] was > 80 µM (inactive).

With `CN(C)/C=N/C(=O)c1sc2cc(C(F)(F)F)cnc2c1-c1ccccc1` the IC50 [3] was > 30 µM (not active).

For `CN(CC(=O)Nc1ccc(F)cc1)C(=O)c1cc(-c2ccco2)nc2ccccc12`, the IC50 [4] was 5.11 µM (active), the CC50 [5] was > 40 µM (active) and the IC50 (Protein Tat) was > 100 µM (active).

For `CN1CCN(C2=C(Cl)C(=O)N(c3ccc(Cl)c(Cl)c3)C2=O)CC1`, the AC50 [6] was 3.75 µM (active), the IC50 (Bcl-2-related protein A1 [7]) was 580 nM (active) and 500 nM (active) and the EC50 (Protein RecA) was 2.22 µM (active). For the same molecule, the IC50 (Genome polyprotein) was 16.9 µM (active), the IC50 (Bcl-2-related protein A1 [8]) was 0.362 µM (active) and the IC50 [9] was > 100 µM (not active). For the same molecule, the IC50 (Bcl-2-related protein A1 [10]) was 0.65 µM (active).
